Values quoted from earlier work, collected in patent US20060240013A1, “Diagnostics and therapeutics for diseases associated with bile acid g-protein-coupled receptor 37 (bg37)” (BAYER HEALTHCARE AG, priority 2002, published 2006).

Target: T1, BG37 receptor (Homo sapiens, UniProt Q8TDU6)
T1 sequence (Q8TDU6 1-330): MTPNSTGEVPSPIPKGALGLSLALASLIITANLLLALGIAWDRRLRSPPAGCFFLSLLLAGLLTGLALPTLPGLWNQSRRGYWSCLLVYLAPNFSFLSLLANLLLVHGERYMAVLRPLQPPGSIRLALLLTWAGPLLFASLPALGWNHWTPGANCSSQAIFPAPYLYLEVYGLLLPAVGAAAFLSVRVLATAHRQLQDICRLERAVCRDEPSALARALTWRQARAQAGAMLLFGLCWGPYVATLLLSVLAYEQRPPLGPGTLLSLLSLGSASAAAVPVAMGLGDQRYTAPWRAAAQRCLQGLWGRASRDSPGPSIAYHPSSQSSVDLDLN
Conditions: intracellular cAMP levels modulated through BG37 receptor; Maruyama et al. (2002)

Structure (SMILES) | rank order of potency of bile acids
C[C@H](CCC(=O)O)[C@H]1CC[C@H]2[C@@H]3[C@H](O)C[C@@H]4C[C@H](O)CC[C@]4(C)[C@H]3CC[C@]12C [chenodeoxycholic acid] | lithocholic acid>deoxycholic acid>chenodeoxycholic acid>cholic acid
C[C@H](CCC(=O)O)[C@H]1CC[C@H]2[C@@H]3[C@H](O)C[C@@H]4C[C@H](O)CC[C@]4(C)[C@H]3C[C@H](O)[C@]12C [cholic acid] | lithocholic acid>deoxycholic acid>chenodeoxycholic acid>cholic acid
